From ChEMBL document CHEMBL1132034, “6-oxa isosteres of anacardic acids as potent inhibitors of bacterial histidine protein kinase (HPK)-mediated two-component regulatory systems” (Bioorg Med Chem Lett, 1999) come the findings set out here.

What all share (type): functional
The subject of one experiment is Bacillus subtilis. Kind of experiment: Ability to inhibit autophosphorylation of KinA and/or Sp0F TCS proteins from Bacillus subtilis.
The subject of the next experiment is Enterococcus faecium. The experiment can be described thus: In vitro antibacterial activity against E. faecium(VR) strain, OC3312 Van R.
In another experiment the test system is Enterococcus faecalis. Kind of experiment: In vitro antibacterial activity against Enterococcus faecalis strain, OC3041.
For experiment [1], the system named is Staphylococcus aureus. The experiment can be described thus: In vitro antibacterial activity against Staphylococcus aureus strain, ATCC 29213.
For experiment [2], the system named is Staphylococcus aureus. The experiment can be described thus: In vitro antibacterial activity against methicillin resistant Staphylococcus aureus (MRSA) strain, OC2089.
The test system of another experiment is Escherichia coli. Kind of experiment: Ability to inhibit autophosphorylation of NR11 and/or transphosphorylation of NR1 TCS proteins from Escherichia coli.

≈ marks a conversion by molar mass, not a printed value. Bounds are passed on as bounds.

For orientation: IC50 means the concentration that gives 50% inhibition. A lower IC50 goes with greater potency. By MIC is commonly meant the least concentration at which growth counts as inhibited. Higher therefore signals a less susceptible organism. Regarding `CCCCCCCCCCCCCCOc1cccc(O)c1C(=O)O`, the IC50 with Bacillus subtilis was found to be 2.2 µM; in the experiment with Escherichia coli it was 5 µM. Further, the MIC with Enterococcus faecium was 4 µg/mL (≈ 11.4 µM); in the experiment with Enterococcus faecalis, 4 µg/mL (≈ 11.4 µM); in the experiment on Staphylococcus aureus [1], more than 64 µg/mL; against Staphylococcus aureus [2], more than 32 µg/mL.
For the molecule `O=C(O)c1c(O)cccc1OCCCCCc1ccccc1`, the IC50 in the experiment with Bacillus subtilis was 380 µM; with Escherichia coli, more than 500 µM. Besides, the MIC is 128 µg/mL (≈ 426 µM) against Enterococcus faecium, 128 µg/mL (≈ 426 µM) against Enterococcus faecalis, 64 µg/mL (≈ 213 µM) against Staphylococcus aureus [1] and 64 µg/mL (≈ 213 µM) with Staphylococcus aureus [2].
`CCCCCCCCCCCCCCOc1ccccc1C(=O)O`: the IC50 with Bacillus subtilis is more than 500 µM; in the experiment with Escherichia coli it was 89 µM.
With `CCCCCCCCCCCCCCCCOc1cccc(O)c1C(=O)O`, the IC50 came out at 3 µM with Bacillus subtilis and 1.5 µM with Escherichia coli. Besides, the MIC in the experiment on Enterococcus faecium was 8 µg/mL (≈ 21.1 µM); with Enterococcus faecalis, 8 µg/mL (≈ 21.1 µM); against Staphylococcus aureus [1], more than 128 µg/mL; against Staphylococcus aureus [2], 128 µg/mL (≈ 338 µM).
With `CCCCCCCCOc1cccc(O)c1C(=O)O`, the IC50 is 190 µM with Bacillus subtilis and more than 500 µM in the experiment with Escherichia coli. Moreover, the MIC with Enterococcus faecium was 128 µg/mL (≈ 481 µM); in the experiment with Enterococcus faecalis, 128 µg/mL (≈ 481 µM); against Staphylococcus aureus [1] it was 64 µg/mL (≈ 240 µM); in the experiment on Staphylococcus aureus [2], 64 µg/mL (≈ 240 µM).
As to `CCCCCCCCCCCCCCOc1ccccc1C(=O)OC`, the IC50 in the experiment with Bacillus subtilis and in the experiment with Escherichia coli was more than 500 µM throughout.
Molecule `CCCCCCCCCCCCCCCc1cccc(O)c1` showed an IC50 in the experiment on Bacillus subtilis of more than 500 µM.
Regarding `O=C(O)c1c(O)cccc1OCCCc1ccccc1`, the IC50 in the experiment with Bacillus subtilis and in the experiment on Escherichia coli was more than 500 µM in each case. Moreover, the MIC in the experiment on Enterococcus faecium, in the experiment on Enterococcus faecalis, in the experiment with Staphylococcus aureus [1] and against Staphylococcus aureus [2] was more than 128 µg/mL throughout.
As for `CCCCCCCCCCCCOc1cccc(O)c1C(=O)O`, the IC50 with Bacillus subtilis stood at 4.4 µM; in the experiment with Escherichia coli, 17 µM. Also, the MIC in the experiment on Enterococcus faecium, in the experiment on Enterococcus faecalis, with Staphylococcus aureus [1] and with Staphylococcus aureus [2] was 8 µg/mL (≈ 24.8 µM) in each case.
As to `CCCCCCCCCCCOc1cccc(O)c1C(=O)O`, the IC50 in the experiment with Bacillus subtilis turned out to be 25 µM; in the experiment on Escherichia coli, 44 µM. For the same molecule, the MIC came out at 16 µg/mL (≈ 51.9 µM) against Enterococcus faecium, 16 µg/mL (≈ 51.9 µM) in the experiment with Enterococcus faecalis, 8 µg/mL (≈ 25.9 µM) against Staphylococcus aureus [1] and 16 µg/mL (≈ 51.9 µM) against Staphylococcus aureus [2].
In the case of `CCCCCCCCCCCCCCCCCCOc1cccc(O)c1C(=O)O`, the IC50 in the experiment on Bacillus subtilis came to 63 µM; with Escherichia coli, 130 µM. Moreover, the MIC with Enterococcus faecium, against Staphylococcus aureus [1] and against Staphylococcus aureus [2] was 128 µg/mL (≈ 315 µM) throughout.
In the case of `CCCCCCCCCCCCOc1cccc(O)c1C(=O)OC`, the 50% inhibitory concentration (IC50) in the experiment with Bacillus subtilis and with Escherichia coli was more than 500 µM each time.
`CCCCCCCCCCCCCCCCCCCCOc1cccc(O)c1C(=O)O`: the IC50 in the experiment on Bacillus subtilis and in the experiment with Escherichia coli was more than 500 µM each time. In addition, the MIC in the experiment with Enterococcus faecium, in the experiment with Staphylococcus aureus [1] and with Staphylococcus aureus [2] was more than 128 µg/mL throughout.
For `CCCCCCCCCCCCCCCc1cc(O)cc(O)c1` [CARDOL], the IC50 in the experiment with Bacillus subtilis was found to be 235 µM.
As to `O=C(O)c1c(O)cccc1OCCC(c1ccccc1)(c1ccccc1)c1ccccc1`, the IC50 worked out at 85 µM in the experiment on Bacillus subtilis and 63 µM in the experiment on Escherichia coli. The MIC is 16 µg/mL (≈ 37.7 µM) against Enterococcus faecium, 16 µg/mL (≈ 37.7 µM) against Enterococcus faecalis, 4 µg/mL (≈ 9.42 µM) against Staphylococcus aureus [1] and 8 µg/mL (≈ 18.8 µM) in the experiment on Staphylococcus aureus [2].
Take `CC/C=C\CCCCCCCCCCOc1cccc(O)c1C(=O)O`: the IC50 stood at 8 µM in the experiment with Bacillus subtilis and 7.8 µM in the experiment with Escherichia coli. The MIC in the experiment with Enterococcus faecium came to 16 µg/mL (≈ 45.9 µM); in the experiment on Enterococcus faecalis, 16 µg/mL (≈ 45.9 µM); in the experiment on Staphylococcus aureus [1], 32 µg/mL (≈ 91.8 µM); in the experiment with Staphylococcus aureus [2], 32 µg/mL (≈ 91.8 µM).
On to `CCCCCCCCCCCCCCOc1cccc(O)c1C(=O)OC`, for which the IC50 in the experiment with Bacillus subtilis and in the experiment with Escherichia coli was more than 500 µM in each case.
